# According to patent US9422308B2, “Derivatives of docosahexaenoylethanolamide and uses thereof” (The United States of America, as represented by the …, priority 2012, dated 2016):
# Tests used:
# [1] = test system: fatty acid amide hydrolase (FAAH); experiment: incubation with WT or FAAH KO brain homogenates (susceptibility to FAAH hydrolysis); type: in vitro ADME, mouse; details: for susceptibility to hydrolysis by FAAH: WT or FAAH KO brain homogenates
# Experimental: Wildtype (WT) or FAAH knock out (KO) brain homogenates were incubated with either A8 or synaptamide.
# Incubation of synaptamide and A8 with brain homogenates: Make 5× pH 9 assay buffer (625 mM Tris, 5 mM EDTA). Collect fresh brains of C57 mice into cold 1× pH 9 assay buffer. Homogenize entire brain (including cerebellum) in 2 mL of cold buffer using a conical Potter-Evehjem type tissue homogenizer driven by a motor. Perform incubations in washed and silanized 10 mL glass test tubes at 37° C. for 1 hour. Add 10 pmoles each of A8 and d4-synaptamide (5 uL of a 2 pmol/uL mixture of A8 and d4-synaptamide in DMSO). See Kim et al., Prostaglandins & Other Lipid Mediators, 96(1-4):114-120 (2011) for the structure of d4-synaptamide (d4-DEA). Add 500 μL of brain homogenate per incubation tube. Vortex gently. Incubate at 37° C. in a water bath, shaking at 42 rpm for 1 hour. Stop reaction by adding 1 mL chloroform, 1 mL methanol, 1 mL methanol/BHT (50 mg/L BHT) and 300 μL water. Vortex to mix, store under an inert gas at −80° C. until. Ready to extract via the method of Bligh and Dyer, Canadian J. Biochem. 37: 911-917, 1959.
# Extraction procedure: Incubations are already in the 1st Bligh-Dyer ration (0.8:1:2 aqueous:CHCl3:MeOH). Work on wet ice. Add 10 pmoles of d4-anandamide which will be used as an internal standard to give relative quantification of the unhydrolyzed d4-synaptamide and A8. Add 1 mL water and 1 mL CHCl3 to each tube, purge with nitrogen, vortex vigorously 1 minute. Centrifuge 5 minutes at 4° C.; 3,000 rpm (Sorvall RTH 750 rotor) to separate phases. Extract the organic phase (bottom layer) to a clean silanized 10 mL test tube using glass Pasteur pipette. Avoid getting any aqueous phase in extract. Add 2 mL CHCl3 to the aqueous phase, purge with nitrogen and vortex 1 minute. […] Cap vials under argon and store at −80° C. until ready to analyze via HPLC-MS.
# Ten pmoles each of A8 and d4-synaptamide were incubated with WT or FAAH KO brain homogenates or buffer (B, […]). Relative quantitation was performed via SRM mass spectrometry.
# neural stem cells = experiment: neuronal and glial differentiation of neural stem cells (MAP2/GFAP immunofluorescence); type: cell-based, rats; details: 7 days, differentiating NSCs
# Experimental: Fetal neural stem cell culture: Neural stern cells (NSCs) were cultured by the neurosphere method (Rietze R. L., Reynolds B. A. (2006) Neural stem cell isolation and characterization. Methods Enzymol. 419, 3-23, the method incorporated by reference herein) with slight modification. Forebrain cortices of rats were isolated on embryonic day 14.5 and 12.5, respectively. The cortices were mechanically disrupted into single cells by repeated pipetting in a serum-free conditioned medium (N2 medium) containing DMEM/F12 (1:1), 0.6% (wt/vol) glucose, 0.1125% (wt/vol) sodium bicarbonate, 2 mM L-glutamine, 5 mM HEPES, 100 μg/mL human apo-transferrin, 20 nM progesterone, 30 nM sodium selenite, 60 μM putrescine, and 25 μg/mL insulin. The dissociated cells were cultured in 6 cm dishes at a density of 1×10^5 cells/mL in N2 medium with 20 ng/mL bFGF and 2 μg/mL heparin in a humidified 5% CO2/95% air incubator at 37° C. Within 3-4 days, the cells grew as free-floating neurospheres that were then collected by centrifugation, mechanically dissociated by pipetting, and passaged.
# Differentiation of NSCs: After the second passage, nestin- and SOX2-positive NSCs were enriched in the neurosphere with minimal presence of differentiated cells (MAP2, Tuj-1 and GFAP-positive cells). After the second passage neurospheres were mechanically dissociated and 5×10^5 cells/mL were plated onto 15 μg/mL poly-L-ornithine coated 6- or 24-well plates in N2 medium without bFGF and heparin to initiate the differentiation. The cultures were then treated with N2 medium containing A8 in the presence of 40 μM vitamin E for 1-7 days. As the vehicle control, N2 medium containing 40 μM vitamin E was used.
# Immunofluorescence staining: For immunofluorescence staining, 2.5×10^5 NSCs were cultured in 0.5 mL media. […] Finally, the cells were mounted with 80% (vol/vol) glycerol, visualized under a fluorescence microscope and the image data were processed using MetaMorph software for quantitative information. The number of MAP2- and GFAP-positive cells were counted from three separate wells with three to six random fields per well. […]
smiles,measurement,setting,value
"CC/C=C\C/C=C\C/C=C\C/C=C\C/C=C\C/C=C\CCC(=O)NCC(C)(C)O [Compound 1, (4Z,7Z,10Z,13Z,16Z,19Z)—N-(2-hydroxy-2-methylpropyl)docosa-4,7,10,13,16,19-hexaenamide]",susceptibility to hydrolysis by FAAH,"[1]; Example 3, FIG. 5",less susceptible to hydrolysis by FAAH than synaptamide
same,susceptibility to hydrolysis by FAAH,"[1]; Example 4, 10 pmoles, pH 9, 37° C., 1 hour, FIG. 6, vs d4-synaptamide",less susceptible to hydrolysis by FAAH than the deuterated synaptamide
same,percent recovery of compound after incubation with brain homogenate,"[1]; WT and FAAH KO brain homogenate, FIG. 5, compared with synaptamide",higher than synaptamide
same,MAP2 positive cells,"neural stem cells; 1 nM, control 7.0±0.8, p=0.02",10.8±1.8%
same,differentiation into GFAP positive cells,neural stem cells; 1-100 nM range,not affected
same,MAP2 positive cells (maximum effect),"neural stem cells; around 10 nM, p=0.007",17.2±4.1%
